Reference: ChEMBL document CHEMBL4266011 (ACS Med Chem Lett, 2018)

Legend:
Carbonic anhydrase 9 = Carbonic anhydrase 9 (Homo sapiens, UniProt Q16790)
Carbonic anhydrase 3 = Carbonic anhydrase 3 (Homo sapiens, UniProt P07451)
Description: Inhibition of recombinant human CA3 preincubated for 15 mins prior to testing measured for 10 to 100 secs by phenol red based stopped-flow CO2 hydration assay

Carbonic anhydrase 13 = Carbonic anhydrase 13 (Homo sapiens, UniProt Q8N1Q1)
Description: Inhibition of recombinant human CA13 preincubated for 15 mins prior to testing measured for 10 to 100 secs by phenol red based stopped-flow CO2 hydration assay

Carbonic anhydrase 12 = Carbonic anhydrase 12 (Homo sapiens, UniProt O43570)
Description: Inhibition of recombinant human CA12 preincubated for 15 mins prior to testing measured for 10 to 100 secs by phenol red based stopped-flow CO2 hydration assay

Carbonic anhydrase 4 = Carbonic anhydrase 4 (Homo sapiens, UniProt P22748)
Description: Inhibition of recombinant human CA4 preincubated for 15 mins prior to testing measured for 10 to 100 secs by phenol red based stopped-flow CO2 hydration assay

[1] = biological target: Carbonic anhydrase 5A, mitochondrial (Homo sapiens, UniProt P35218)
Carbonic anhydrase 5A, mitochondrial, sequence (P35218 whole entry): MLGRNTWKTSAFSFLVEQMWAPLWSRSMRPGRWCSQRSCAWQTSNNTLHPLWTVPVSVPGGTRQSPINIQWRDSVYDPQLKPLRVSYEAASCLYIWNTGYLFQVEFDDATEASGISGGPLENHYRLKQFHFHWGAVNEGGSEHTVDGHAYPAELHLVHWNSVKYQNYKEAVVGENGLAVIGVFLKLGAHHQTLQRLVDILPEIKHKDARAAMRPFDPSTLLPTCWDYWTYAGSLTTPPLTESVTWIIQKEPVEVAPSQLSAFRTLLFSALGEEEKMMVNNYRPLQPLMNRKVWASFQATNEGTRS
Description: Inhibition of recombinant human CA5a preincubated for 15 mins prior to testing measured for 10 to 100 secs by phenol red based stopped-flow CO2 hydration assay

[2] = biological target: Carbonic anhydrase 5B, mitochondrial (Homo sapiens, UniProt Q9Y2D0)
Carbonic anhydrase 5B, mitochondrial, sequence (Q9Y2D0 whole entry): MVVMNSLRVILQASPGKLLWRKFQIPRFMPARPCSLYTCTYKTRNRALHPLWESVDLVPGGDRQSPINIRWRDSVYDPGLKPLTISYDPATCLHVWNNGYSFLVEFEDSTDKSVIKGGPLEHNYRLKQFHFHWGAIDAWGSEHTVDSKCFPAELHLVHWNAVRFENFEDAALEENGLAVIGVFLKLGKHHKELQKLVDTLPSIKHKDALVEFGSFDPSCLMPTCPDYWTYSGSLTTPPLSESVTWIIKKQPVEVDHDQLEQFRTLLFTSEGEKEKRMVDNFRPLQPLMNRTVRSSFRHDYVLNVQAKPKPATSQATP
Description: Inhibition of recombinant human CA5b preincubated for 15 mins prior to testing measured for 10 to 100 secs by phenol red based stopped-flow CO2 hydration assay

Carbonic anhydrase 14 = Carbonic anhydrase 14 (Homo sapiens, UniProt Q9ULX7)
Carbonic anhydrase 14, sequence (Q9ULX7 whole entry): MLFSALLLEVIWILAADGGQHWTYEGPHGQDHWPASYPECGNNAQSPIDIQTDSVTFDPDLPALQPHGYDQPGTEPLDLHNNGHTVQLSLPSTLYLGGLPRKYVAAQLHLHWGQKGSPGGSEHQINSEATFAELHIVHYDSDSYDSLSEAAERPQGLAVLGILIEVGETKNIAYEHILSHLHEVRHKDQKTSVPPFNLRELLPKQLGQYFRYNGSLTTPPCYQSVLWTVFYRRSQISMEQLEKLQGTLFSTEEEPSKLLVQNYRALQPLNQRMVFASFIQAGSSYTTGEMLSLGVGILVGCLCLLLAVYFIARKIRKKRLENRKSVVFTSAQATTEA
Description: Inhibition of recombinant human CA14 preincubated for 15 mins prior to testing measured for 10 to 100 secs by phenol red based stopped-flow CO2 hydration assay

Carbonic anhydrase 7 = Carbonic anhydrase 7 (Homo sapiens, UniProt P43166)
Carbonic anhydrase 7, sequence (P43166 whole entry): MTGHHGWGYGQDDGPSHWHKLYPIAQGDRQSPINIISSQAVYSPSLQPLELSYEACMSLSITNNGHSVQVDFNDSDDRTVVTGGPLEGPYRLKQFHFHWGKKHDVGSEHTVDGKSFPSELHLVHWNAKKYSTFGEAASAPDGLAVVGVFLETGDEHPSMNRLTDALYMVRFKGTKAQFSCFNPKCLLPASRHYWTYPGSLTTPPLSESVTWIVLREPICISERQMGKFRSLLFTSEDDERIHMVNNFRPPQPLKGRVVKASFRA
Description: Inhibition of recombinant human CA7 preincubated for 15 mins prior to testing measured for 10 to 100 secs by phenol red based stopped-flow CO2 hydration assay

Carbonic anhydrase 6 = Carbonic anhydrase 6 (Homo sapiens, UniProt P23280)
Carbonic anhydrase 6, sequence (P23280 whole entry): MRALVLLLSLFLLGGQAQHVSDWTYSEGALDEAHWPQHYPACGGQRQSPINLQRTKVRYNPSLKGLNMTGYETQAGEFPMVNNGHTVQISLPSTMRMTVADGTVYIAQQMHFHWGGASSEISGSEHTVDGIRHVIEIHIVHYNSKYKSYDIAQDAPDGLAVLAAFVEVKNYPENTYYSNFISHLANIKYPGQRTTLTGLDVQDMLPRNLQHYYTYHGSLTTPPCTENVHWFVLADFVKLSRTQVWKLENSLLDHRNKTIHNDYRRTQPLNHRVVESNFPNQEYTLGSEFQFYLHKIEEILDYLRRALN
Description: Inhibition of recombinant human CA6 preincubated for 15 mins prior to testing measured for 10 to 100 secs by phenol red based stopped-flow CO2 hydration assay

Carbonic anhydrase 13, sequence (Q8N1Q1 whole entry): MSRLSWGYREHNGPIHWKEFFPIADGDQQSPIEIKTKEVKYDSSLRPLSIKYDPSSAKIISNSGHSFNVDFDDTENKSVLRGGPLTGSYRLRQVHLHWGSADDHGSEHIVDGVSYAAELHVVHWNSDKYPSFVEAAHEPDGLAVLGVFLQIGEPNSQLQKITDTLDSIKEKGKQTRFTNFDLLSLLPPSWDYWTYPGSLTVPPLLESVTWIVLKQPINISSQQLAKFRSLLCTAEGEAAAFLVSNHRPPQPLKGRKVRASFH
Carbonic anhydrase 12, sequence (O43570 whole entry): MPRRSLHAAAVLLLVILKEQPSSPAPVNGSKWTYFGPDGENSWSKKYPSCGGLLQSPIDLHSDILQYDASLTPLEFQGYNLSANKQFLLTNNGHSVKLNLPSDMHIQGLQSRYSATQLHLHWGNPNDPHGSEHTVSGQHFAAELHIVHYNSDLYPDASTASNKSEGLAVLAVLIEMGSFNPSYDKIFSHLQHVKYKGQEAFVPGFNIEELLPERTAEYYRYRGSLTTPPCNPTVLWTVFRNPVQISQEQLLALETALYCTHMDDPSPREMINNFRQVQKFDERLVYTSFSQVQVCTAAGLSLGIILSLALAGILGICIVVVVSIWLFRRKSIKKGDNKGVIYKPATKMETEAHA
Carbonic anhydrase 4, sequence (P22748 whole entry): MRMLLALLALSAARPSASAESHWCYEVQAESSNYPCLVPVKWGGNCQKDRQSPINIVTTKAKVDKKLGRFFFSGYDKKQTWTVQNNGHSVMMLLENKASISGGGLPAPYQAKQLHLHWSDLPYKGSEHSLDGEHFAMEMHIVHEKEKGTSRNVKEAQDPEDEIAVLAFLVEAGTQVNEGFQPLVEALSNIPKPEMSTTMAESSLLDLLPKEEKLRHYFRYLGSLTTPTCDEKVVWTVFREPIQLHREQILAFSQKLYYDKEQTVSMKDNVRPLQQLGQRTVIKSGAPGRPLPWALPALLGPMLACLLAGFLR
Carbonic anhydrase 3, sequence (P07451 whole entry): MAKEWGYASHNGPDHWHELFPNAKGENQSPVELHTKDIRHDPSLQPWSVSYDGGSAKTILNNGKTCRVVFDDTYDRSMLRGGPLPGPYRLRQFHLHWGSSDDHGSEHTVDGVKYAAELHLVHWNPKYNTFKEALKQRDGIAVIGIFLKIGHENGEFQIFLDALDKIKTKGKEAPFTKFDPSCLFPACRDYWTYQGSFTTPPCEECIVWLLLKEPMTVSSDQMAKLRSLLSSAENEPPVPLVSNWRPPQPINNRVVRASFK

NC(N)=Nc1nc(CSCCC(N)=NS(N)(=O)=O)cs1 [FAMOTIDINE]
Ki (Carbonic anhydrase 9): 126 nM
Ki (Carbonic anhydrase 3): > 10000 nM
Ki (Carbonic anhydrase 13): 172 nM
Ki (Carbonic anhydrase 12): 45.3 nM
Ki (Carbonic anhydrase 4): 939 nM
Ki [1]: 1430 nM
Ki [2]: 5330 nM
Ki (Carbonic anhydrase 14): 677 nM
Ki (Carbonic anhydrase 7): 3 nM
Ki (Carbonic anhydrase 6): 98.2 nM
